#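 Method: 48-hour compound exposure of cells in 96-well plates, five concentrations, linear interpolation of endpoints. GI50 marks 50% less growth.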 The source made the active and inactive calls. No stated cut-off is given here; in the data, active = GI50 up to about 1.1 µM and inactive = higher.
# Columns and labels:
# Experiment in all cases: NCI-60 cell line screen, 48 h
# [1] = test system: OVCAR-3
# [2] = test system: A498
# [3] = test system: TK-10
# [4] = test system: HOP-92
# [5] = test system: MDA-MB-435
# [6] = test system: 786-0
# [7] = test system: UACC-257
# [8] = test system: SF-295
# [9] = test system: NCI/ADR-RES
# [10] = test system: NCI-H460
# [11] = test system: EKVX
# [12] = test system: SK-MEL-2
# [13] = test system: CAKI-1
# [14] = test system: OVCAR-8
# [15] = test system: HCT-116
# [16] = test system: ACHN
# [17] = test system: IGROV-1
# [18] = test system: RPMI-8226
# [19] = test system: HCT-15
# [20] = test system: SR
SMILES,GI50 [1],GI50 [2],GI50 [3],GI50 [4],GI50 [5],GI50 [6],GI50 [7],GI50 [8],GI50 [9],GI50 [10],GI50 [11],GI50 [12],GI50 [13],GI50 [14],GI50 [15],GI50 [16],GI50 [17],GI50 [18],GI50 [19] [µM],GI50 [20]
OC1OC(c2ccc[nH]2)C(F)(F)C(F)(F)C1(F)F (stereo not drawn),> 100 µM (inactive),> 100 µM (inactive),> 100 µM (inactive),68.4 µM (inactive),> 100 µM (inactive),> 100 µM (inactive),> 100 µM (inactive),> 100 µM (inactive),> 100 µM (inactive),> 100 µM (inactive),> 100 µM (inactive),> 100 µM (inactive),87.3 µM (inactive),> 100 µM (inactive),> 100 µM (inactive),> 100 µM (inactive),> 100 µM (inactive),> 100 µM (inactive),> 100,–
COc1c2cc([N+](=O)[O-])cc1CNC(=O)CN1CCOCCOCCN(CCOCCOCC1)CC(=O)NC2,> 100 µM (inactive),> 100 µM (inactive),> 100 µM (inactive),> 100 µM (inactive),> 100 µM (inactive),> 100 µM (inactive),> 100 µM (inactive),> 100 µM (inactive),> 100 µM (inactive),> 100 µM (inactive),> 100 µM (inactive),> 100 µM (inactive),> 100 µM (inactive),> 100 µM (inactive),> 100 µM (inactive),> 100 µM (inactive),> 100 µM (inactive),56.4 µM (inactive),> 100,–
ClCc1nc2cc(Cl)ccc2o1,1.85 µM (inactive),–,2.83 µM (inactive),1.91 µM (inactive),2.6 µM (inactive),1.67 µM (inactive),9.16 µM (inactive),20.3 µM (inactive),20.3 µM (inactive),12.5 µM (inactive),3.75 µM (inactive),5.78 µM (inactive),1.65 µM (inactive),4.91 µM (inactive),6.97 µM (inactive),1.72 µM (inactive),1.61 µM (inactive),1.42 µM (inactive),3.39,1.7 µM (inactive)
CCOC(=O)c1sc2c(c1OC(=O)c1ccco1)c(=O)n(-c1ccccc1)c(=S)n2-c1ccccc1,26.5 µM (inactive),23 µM (inactive),39.1 µM (inactive),30.2 µM (inactive),28.1 µM (inactive),28.9 µM (inactive),90.2 µM (inactive),> 100 µM (inactive),21.4 µM (inactive),17.7 µM (inactive),21.3 µM (inactive),–,34.3 µM (inactive),26.1 µM (inactive),29.7 µM (inactive),27.5 µM (inactive),17.9 µM (inactive),30.6 µM (inactive),32.1,–
COc1ccc(-c2c3c(n(C4OC(COC(C)=O)C(OC(C)=O)C(OC(C)=O)C4OC(C)=O)c(=S)c2C#N)CCC3)cc1 (stereo not drawn),> 100 µM (inactive),–,> 100 µM (inactive),6.82 µM (inactive),> 100 µM (inactive),> 100 µM (inactive),> 100 µM (inactive),> 100 µM (inactive),> 100 µM (inactive),> 100 µM (inactive),–,> 100 µM (inactive),> 100 µM (inactive),–,> 100 µM (inactive),> 100 µM (inactive),> 100 µM (inactive),> 100 µM (inactive),> 100,> 100 µM (inactive)
O=C1CCCC2(c3ccccc3)Nc3ccccc3N12 (stereo not drawn),> 100 µM (inactive),–,> 100 µM (inactive),> 100 µM (inactive),> 100 µM (inactive),> 100 µM (inactive),> 100 µM (inactive),97.1 µM (inactive),> 100 µM (inactive),78.5 µM (inactive),> 100 µM (inactive),> 100 µM (inactive),> 100 µM (inactive),> 100 µM (inactive),> 100 µM (inactive),> 100 µM (inactive),> 100 µM (inactive),> 100 µM (inactive),> 100,67.8 µM (inactive)
COc1ccc(C[C@H]2COC(=O)[C@@H]2Cc2ccc(Br)cc2)cc1OC,15.2 µM (inactive),–,28.6 µM (inactive),20.2 µM (inactive),19.5 µM (inactive),38 µM (inactive),11.5 µM (inactive),14.5 µM (inactive),10.7 µM (inactive),33.4 µM (inactive),7.19 µM (inactive),19.9 µM (inactive),34 µM (inactive),30.7 µM (inactive),19.1 µM (inactive),15.1 µM (inactive),16.1 µM (inactive),17.9 µM (inactive),17.3,20.7 µM (inactive)
S=C(N/N=C\C(=N/NC(=S)N1CCCCC1)c1ccccc1)N1CCCCC1,1.74 µM (inactive),1.78 µM (inactive),1.8 µM (inactive),2.38 µM (inactive),1.91 µM (inactive),1.85 µM (inactive),2.14 µM (inactive),2.01 µM (inactive),2.31 µM (inactive),2.14 µM (inactive),1.97 µM (inactive),2.25 µM (inactive),2.15 µM (inactive),–,2.3 µM (inactive),1.69 µM (inactive),1.76 µM (inactive),46.1 µM (inactive),2.4,–
COC1CC(OC2C(C)OC(OC3C(C)OC(OC4C(C)OC(O[C@H]5CC[C@@]6(C)C(=CC[C@]7(O)[C@@H]6C[C@@H](OC(C)=O)[C@@]6(C)[C@]7(O)CC[C@@]6(O)C(C)=O)C5)CC4OC)CC3OC)CC2OC)OC(C)C1O (stereo partly drawn),> 25 µM (inactive),–,> 25 µM (inactive),> 25 µM (inactive),> 25 µM (inactive),> 25 µM (inactive),> 25 µM (inactive),> 25 µM (inactive),> 25 µM (inactive),–,> 25 µM (inactive),> 25 µM (inactive),> 25 µM (inactive),> 25 µM (inactive),> 25 µM (inactive),> 25 µM (inactive),> 25 µM (inactive),> 25 µM (inactive),> 25,> 25 µM (inactive)
COc1cc2c(c(OC)c1OC)C(=O)CC2N (stereo not drawn),> 100 µM (inactive),> 100 µM (inactive),> 100 µM (inactive),> 100 µM (inactive),> 100 µM (inactive),> 100 µM (inactive),> 100 µM (inactive),> 100 µM (inactive),> 100 µM (inactive),> 100 µM (inactive),> 100 µM (inactive),> 100 µM (inactive),> 100 µM (inactive),> 100 µM (inactive),> 100 µM (inactive),> 100 µM (inactive),> 100 µM (inactive),> 100 µM (inactive),> 100,–
CC(C)=CCCC1(Sc2ccccc2)C(=O)OCC1C=C(C)C (stereo not drawn),17.3 µM (inactive),52.4 µM (inactive),34.8 µM (inactive),–,32.1 µM (inactive),17.7 µM (inactive),17.5 µM (inactive),36.7 µM (inactive),21.2 µM (inactive),18.3 µM (inactive),19 µM (inactive),18.5 µM (inactive),23.2 µM (inactive),30.5 µM (inactive),11.5 µM (inactive),32.5 µM (inactive),16.8 µM (inactive),21.5 µM (inactive),29.9,–
O=c1[nH]c(=S)c2cc3c(=S)[nH]c(=O)n(CCC(c4ccccc4)(c4ccccc4)c4ccccc4)c3nc2n1CCC(c1ccccc1)(c1ccccc1)c1ccccc1,> 100 µM (inactive),> 100 µM (inactive),> 100 µM (inactive),> 100 µM (inactive),> 100 µM (inactive),> 100 µM (inactive),> 100 µM (inactive),> 100 µM (inactive),> 100 µM (inactive),> 100 µM (inactive),> 100 µM (inactive),> 100 µM (inactive),> 100 µM (inactive),–,> 100 µM (inactive),> 100 µM (inactive),–,> 100 µM (inactive),> 100,–
CN1CNc2nc(N)n(C)c(=O)c2C1,> 10 µM (inactive),–,> 10 µM (inactive),> 10 µM (inactive),> 10 µM (inactive),> 10 µM (inactive),> 10 µM (inactive),> 10 µM (inactive),> 10 µM (inactive),> 10 µM (inactive),> 10 µM (inactive),> 10 µM (inactive),–,> 10 µM (inactive),–,> 10 µM (inactive),> 10 µM (inactive),–,> 10,> 10 µM (inactive)
CN(C)c1ccc(/C=C2\N=C(NNc3ccccc3)NC2=O)cc1,16 µM (inactive),17.1 µM (inactive),20.8 µM (inactive),17.3 µM (inactive),21.5 µM (inactive),17.9 µM (inactive),15.6 µM (inactive),21.5 µM (inactive),19.8 µM (inactive),19.1 µM (inactive),19 µM (inactive),18.7 µM (inactive),26.2 µM (inactive),30.9 µM (inactive),22.9 µM (inactive),20.2 µM (inactive),23.4 µM (inactive),16 µM (inactive),22,–
CC(C)CCC[C@@H](C)[C@H]1CC[C@H]2[C@@H]3CC[C@H]4C[C@H](N)CC[C@]4(C)[C@H]3CC[C@]12C,26.6 µM (inactive),22.2 µM (inactive),16.6 µM (inactive),11.7 µM (inactive),27.1 µM (inactive),20.4 µM (inactive),19 µM (inactive),19.3 µM (inactive),26.7 µM (inactive),22 µM (inactive),17.7 µM (inactive),–,16.4 µM (inactive),24.4 µM (inactive),30.1 µM (inactive),17.5 µM (inactive),11.3 µM (inactive),20.7 µM (inactive),24.8,–

# — ChEMBL document CHEMBL1201862, “PubChem BioAssay data set” (2004)
